This is an account of results in patent US12291522B2, “Galectin-3 inhibitors” (BRISTOL-MYERS SQUIBB COMPANY, priority 2020, dated 2025).

In experiment [1] the target is T1, Gal3 (Human Galectin-3) in THP-1 cells (Homo sapiens, UniProt P17931).
T1 construct: host or cells: THP-1
The experiment can be described thus: ELISA Gal3 Degradation Assay in THP-1 Cells. Type of experiment: cell-based. The note with it: 48 hours, culture media Gal3 by ELISA. On the procedure: [formula] ELISA Gal3 Degradation Assay in THP-1 Cells
THP-1 cells (ATCC, Cat #TIB-202), a human monocyte cell line derived from leukemia were plated at 2E6 cells/mL in 200 uL/well of RPMI 1640 (ThermoFisher, Cat #11835) in 96-well plates. Cells were treated with DMSO as a control and various concentrations of compounds for 48 hours. After the treatment, the culture media were collected. The PBS washed cell pellets were lysed in Lysis Buffer (Cell Signaling, Cat #9803) supplemented with 1XProtease Inhibitor Cocktail (Cell Signaling, Cat #5872). Gal3 levels in culture media and cell lysates were quantified by ELISA assays (Human Galectin-3 DuoSet ELISA kit, R&D Systems, Cat #DY1154) according to manufacturer's instructions. The cell culture media were also used for the assessment of cellular toxicity (LDH Assay kit, R&D Systems, DY994). The IC50 (degradation concentration at 50%) values were calculated based on the cellular Gal3 protein levels using DMSO as the control.
(ELISA stands for enzyme-linked immunosorbent assay.)

For experiment [2], the target named is His-tagged recombinant human Gal-3 (hGal-3) (Homo sapiens, UniProt P17931). Put plainly: Gal-3 HTRF assay (His-tagged hGal-3 / B-ASF). It counts as binding. To be noted: 15 nM hGal-3, 15 nM B-ASF. On the procedure: ASSAY BUFFER Composition: 25 mM HEPES, 100 mM NaCl, 0.005% Tween 20, 0.05% BSA prepared in sterile water (all reagents from Sigma).
Sequence of His-tagged recombinant human Gal-3 (hGal-3) (P17931 whole entry): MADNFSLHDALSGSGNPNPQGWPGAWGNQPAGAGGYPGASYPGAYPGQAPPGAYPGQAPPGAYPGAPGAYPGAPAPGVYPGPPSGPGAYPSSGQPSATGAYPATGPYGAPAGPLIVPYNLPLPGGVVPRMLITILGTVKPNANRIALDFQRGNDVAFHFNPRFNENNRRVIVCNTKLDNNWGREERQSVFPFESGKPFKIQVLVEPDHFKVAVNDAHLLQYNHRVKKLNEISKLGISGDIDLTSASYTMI
• Positive Control: 100% DMSO (1 μL)+His-tagged hGal-3 (20 μL)+B-ASF (20 μL)+Anti-His Terbium Antibody (5 μL)+Strep d2 Antibody (5 μL). • Negative Control: 100% DMSO (1 μL)+His-tagged hGal-3 (20 μL)+Anti His Terbium Antibody (5 μL)+Strep d2 Aantibody (5 μL). Stocks Preparation:
PROTOCOL: The Gal-3 assays were performed in 384 white Opti plates in three replicates at room temperature with gentle shaking at 250-300 rpmFrom the original stocks, […] working stock concentrations of His-tagged recombinant human Gal-3 (hGal-3) and that of B-ASF were prepared. From the working stock, 20 μL of hGal-3 (15 nM) and 20 μL B-ASF (15 nM) were added to the plates. In Negative Control, only hGal-3 was added. A concentration range of 50× working stocks were prepared for the compounds in 100% DMSO. Aliquots of luL of the compounds were added to the wells and pre-incubated with 20 μL hGal-3 per well for 30 minutes Then 20 μL B-ASF wereadded and incubated for another 1 hour. To detect the signal, 5 μL (final conc. of 1.0 nM) terbium labelled Anti-His antibody was added and incubated for 30 min followed by adding 5 μL (final conc. of 20 nM) Streptavidin d2 and incubation for another 1 hour. The assay signal was detected using HTRF screen protocol (Excitation wavelength=340 nm, emission wavelength=615 nm/665 nm) on Envision 2104 Multilabel Reader. Data analysed using Toolset and Curve Master. Results are reported in the experimental section (IC50 in μM).
Background: TR-FRET usually uses a lanthanide donor and a delayed reading to cut background.

Experiment [3] concerns the target T2, hCRBN (NanoLuc-CRBN fusion construct in HEK-293 cells) (Homo sapiens, UniProt Q96SW2).
T2 construct: expressed in transfected cells; host or cells: HEK-293
The experiment can be described thus: CRBN BRET Target Engagement. It counts as cell-based. The note with it: NanoLuc-CRBN transfected HEK-293 cells, BRET with CRBN Probe. The protocol:
CRBN BRET Target Engagement (hCRBN IC50 (μM))
NanoLuc-CRBN fusion construct was transfected in HEK-293 cells using FuGENE HD (Promega) according to the manufacturer's protocol. In brief, Nluc-CRBN was diluted into Transfection Carrier DNA (Promega) 1:10 (mass/mass), to which FuGENE HD was 1:3 (μg DNA:μL FuGENE HD). One part (vol) of DNA:FuGENE HD complexes were combined with 20 parts (vol) of HEK-293 cells suspended at a density of […]. Cells were incubated for ˜20 hr at 37° C./5% CO2. Following transfection, cells were washed and resuspended at 200,000 cells/mL in OptiMEM without phenol red (Gibco).
For BRET measurements, cells were seeded in a 384-well nonbinding surface plate (Corning) plate for a final count of 10,000 cells/well. Compounds were dissolved at 10 mM in dimethylsulfoxide (DMSO) and evaluated at eleven concentrations using a high concentration of […]. CRBN Probe was used for equilibrium measurements, employing a final concentration of approximately EC50-80. For live-cell measurements, 20 nM of CRBN Probe was added. For the live-cell assay conditions, the plates were incubated for 2 hours at 37° C./5% CO2. NanoBRET NanoGlo Substrate and Extracellular Nanoluc Inhibitor (Promega) were added according to manufacturer's guidelines. For lytic cell measurements, digitonin was added to the cells to a final concentration of 50 μg/mL and 20 nM of CRBN Probe was added. To measure NanoBRET in permeabilized cells, extracellular Nluc inhibitor was omitted during the detection step. For all BRET experiments, the Envision 2015 (Perkin Elmer) equipped with a BRET2 Enh mirror, BRET 647 nM/75 nM Bandwidth and BC703 460 nM/80 nM Bandwidth filters was used for readouts. Each read was integrated for 0.5 s.
To determine compound potency (IC50), BRET ratios for each dilution series was first normalized to a % Inhibition value via Equation 1, where “S” represents Sample BRET, “B” represents Background BRET, and “T” represents Total BRET. In this equation, the background control (B) consists of NanoLuc-CRBN expressing cells and no CRBN Probe. The total BRET Ratio (T) consists of NanoLuc-CRBN expressing cells, CRBN Probe, and an amount of DMSO at a concentration equivalent to that added when testing compounds.
Following normalization, the percent inhibition values are plotted as a function of compound concentration and fit to Equation 2. […]
Background: BRET reads energy transfer from a luciferase to a nearby fluorophore.

Where [4] appears, read: test 1, read-out: Supernatant (IC50) test 1.
The mark [5] stands for this setting: test 2, read-out: Supernatant (IC50) test 2.

Where two headings read alike, the source gives them in different places.

T1 sequence (P17931 whole entry): as above
T2 sequence (Q96SW2 whole entry, the tested form may be a part): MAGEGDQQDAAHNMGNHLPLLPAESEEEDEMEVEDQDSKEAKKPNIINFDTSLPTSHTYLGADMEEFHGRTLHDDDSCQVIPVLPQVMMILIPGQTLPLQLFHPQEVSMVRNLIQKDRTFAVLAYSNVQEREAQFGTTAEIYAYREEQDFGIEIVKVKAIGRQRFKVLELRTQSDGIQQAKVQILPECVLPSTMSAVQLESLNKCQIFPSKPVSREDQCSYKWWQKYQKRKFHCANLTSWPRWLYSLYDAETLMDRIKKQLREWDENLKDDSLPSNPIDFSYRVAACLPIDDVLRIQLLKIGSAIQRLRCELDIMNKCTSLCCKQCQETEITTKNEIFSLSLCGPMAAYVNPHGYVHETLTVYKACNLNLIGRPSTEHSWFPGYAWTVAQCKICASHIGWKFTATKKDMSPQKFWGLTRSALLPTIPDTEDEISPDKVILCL

For orientation: IC50 means the concentration that inhibits the measured activity by half. For `Cc1nc([C@@H]2O[C@H](CO)[C@H](O)[C@H](n3cc(-c4cc(F)c(Cl)c(F)c4)nn3)[C@H]2OCC(=O)N[C@H]2C[C@@H](Oc3ccc(C(=O)Nc4ccc5c(c4)CN(C4CCC(=O)NC4=O)C5=O)cc3)C2)n(-c2cc(Cl)ccc2C(F)(F)F)n1` (stereo partly drawn) [Example 3, 4-(cis-3-(2-(((2S,3R,4S,5R,6R)-2-(1-(5-Chloro-2-(trifluoromethyl)phenyl)-3-methyl-1H-1,2,4-triazol-5-yl)-4-(4-(4-chloro-3,5-difluorophenyl)-1H-1,2,3-triazol-1-yl)-5-hydroxy-6-(hydroxymethyl)tetrahydro-2H-pyran-3-yl)oxy)acetamido)cyclobutoxy)-N-(2-(2,6-dioxopiperidin-3-yl)-1-oxoisoindolin-5-yl)benzamide], the half-inhibitory concentration (IC50) in experiment [1] (setting [4]) was less than 10 nM; in experiment [1] (setting [5]), 48 nM; in experiment [2] it was 70 nM; in experiment [3], 126 nM.

Turning to `Cc1nc([C@@H]2O[C@H](CO)[C@H](O)[C@H](n3cc(-c4cc(F)c(Cl)c(F)c4)nn3)[C@H]2OCC(=O)N[C@H]2C[C@@H](Oc3ccc(C(=O)Nc4cccc5c4CN(C4CCC(=O)NC4=O)C5=O)nc3)C2)n(-c2cc(Cl)ccc2C(F)(F)F)n1` (some centres unmarked) [Example 21], the IC50 in experiment [1] (setting [4]) was 1040 nM; in experiment [1] (setting [5]), 23 nM; in experiment [2], 70 nM; in experiment [3], 930 nM.

Regarding `Cc1nc([C@@H]2O[C@H](CO)[C@H](O)[C@H](n3cc(-c4cc(F)c(Cl)c(F)c4)nn3)[C@H]2OCCOc2ccc(C(=O)Nc3ccc4c(c3)CN(C3CCC(=O)NC3=O)C4=O)cc2)n(-c2cc(Cl)ccc2C(F)(F)F)n1` (some centres unmarked) [Example 25], the IC50 turned out to be 1700 nM in experiment [1] (setting [4]), 522 nM in experiment [1] (setting [5]), 139 nM in experiment [2] and 2690 nM in experiment [3].

Turning to `Cc1nc([C@@H]2O[C@H](CO)[C@H](O)[C@H](n3cc(-c4cc(F)c(Cl)c(F)c4)nn3)[C@H]2OCC(=O)N2CC(COc3ccc(C(=O)Nc4ccc5c(c4)C(=O)N(C4CCC(=O)NC4=O)C5)cc3)C2)n(-c2cc(Cl)ccc2C(F)(F)F)n1` (stereo partly drawn) [Example 11, 4-((1-(2-(((2S,3R,4S,5R,6R)-2-(1-(5-Chloro-2-(trifluoromethyl)phenyl)-3-methyl-1H-1,2,4-triazol-5-yl)-4-(4-(4-chloro-3,5-difluorophenyl)-1H-1,2,3-triazol-1-yl)-5-hydroxy-6-(hydroxymethyl)tetrahydro-2H-pyran-3-yl)oxy)acetyl)azetidin-3-yl)methoxy)-N-(2-(2,6-dioxopiperidin-3-yl)-3-oxoisoindolin-5-yl)benzamide], the IC50 was found to be 35 nM in experiment [1] (setting [4]), 27 nM in experiment [1] (setting [5]), 40 nM in experiment [2] and 1270 nM in experiment [3].

As for `Cc1nc([C@@H]2O[C@H](CO)[C@H](O)[C@H](n3cc(-c4cc(F)c(Cl)c(F)c4)nn3)[C@H]2OCC(=O)N2CC(COc3ccc(C(=O)Nc4ccc5c(c4)CN(C4CCC(=O)NC4=O)C5=O)nc3)C2)n(-c2cc(Cl)ccc2C(F)(F)F)n1` (some centres unmarked) [Example 26], the concentration for half-maximal inhibition (IC50) is 9 nM in experiment [1] (setting [4]), 9 nM in experiment [1] (setting [5]), 85 nM in experiment [2] and 251 nM in experiment [3].

In the case of `Cc1nc([C@@H]2O[C@H](CO)[C@H](O)[C@H](n3cc(-c4cc(F)c(Cl)c(F)c4)nn3)[C@H]2OCC(=O)N[C@H]2C[C@@H](Oc3ccc(C(=O)Nc4ccc5c(c4)CN(C4CCC(=O)NC4=O)C5=O)nc3)C2)n(-c2cc(Cl)ccc2C(F)(F)F)n1` (stereo partly drawn) [Example 4, 5-(cis-3-(2-(((2S,3R,4S,5R,6R)-2-(1-(5-Chloro-2-(trifluoromethyl)phenyl)-3-methyl-1H-1,2,4-triazol-5-yl)-4-(4-(4-chloro-3,5-difluorophenyl)-1H-1,2,3-triazol-1-yl)-5-hydroxy-6-(hydroxymethyl)tetrahydro-2H-pyran-3-yl)oxy)acetamido)cyclobutoxy)-N-(2-(2,6-dioxopiperidin-3-yl)-1-oxoisoindolin-5-yl)picolinamide], the IC50 is 68 nM in experiment [1] (setting [4]), 96 nM in experiment [1] (setting [5]), 81 nM in experiment [2] and 174 nM in experiment [3].

With `Cc1nc([C@@H]2O[C@H](CO)[C@H](O)[C@H](n3cc(-c4cc(F)c(Cl)c(F)c4)nn3)[C@H]2OCC(=O)N2CC(Oc3ccc(C(=O)Nc4ccc5c(c4)CN(C4CCC(=O)NC4=O)C5=O)nc3)C2)n(-c2cc(Cl)ccc2C(F)(F)F)n1` (some centres unmarked) [Example 35], the IC50 in experiment [1] (setting [4]) was found to be 314 nM; in experiment [1] (setting [5]) it was 338 nM; in experiment [2], 77 nM; in experiment [3], 498 nM.

For `Cc1nc([C@@H]2O[C@H](CO)[C@H](O)[C@H](n3cc(-c4cc(F)c(Cl)c(F)c4)nn3)[C@H]2OCC(=O)N2CC(Oc3ccc(C(=O)Nc4ccc5c(c4)CN(C4CCC(=O)NC4=O)C5=O)cc3)C2)n(-c2cc(Cl)ccc2C(F)(F)F)n1` (stereo partly drawn) [Example 8, 4-((1-(2-(((2S,3R,4S,5R,6R)-2-(1-(5-Chloro-2-(trifluoromethyl)phenyl)-3-methyl-1H-1,2,4-triazol-5-yl)-4-(4-(4-chloro-3,5-difluorophenyl)-1H-1,2,3-triazol-1-yl)-5-hydroxy-6-(hydroxymethyl)tetrahydro-2H-pyran-3-yl)oxy)acetyl)azetidin-3-yl)oxy)-N-(2-(2,6-dioxopiperidin-3-yl)-1-oxoisoindolin-5-yl)benzamide], the IC50 in experiment [1] (setting [4]) amounted to 281 nM; in experiment [1] (setting [5]) it was 38 nM; in experiment [2] it was 48 nM; in experiment [3], 1420 nM.
